Data published in ChEMBL document CHEMBL4350997, “The synthesis and anticancer activity of 2-styrylquinoline derivatives. A p53 independent mechanism of action” (Eur J Med Chem, 2019).
In brackets after ≈: the same amount, converted by molar mass.

How the values were obtained:
NHDF = assay: Cytotoxicity against human NHDF cells incubated for 72 hrs by MTS assay; format: cell-based
HCT-116 [1] = assay: Cytotoxicity against human HCT116 cells deficient in p53 incubated for 72 hrs by MTS assay; conditions: HCT-116, 72 h
HCT-116 [2] = assay: Cytotoxicity against human HCT116 cells expressing wild type p53 incubated for 72 hrs by MTS assay; conditions: HCT-116, 72 h
HCT-116 [3] = assay: Anticancer activity against human HCT116 cells assessed as inhibition of cell proliferation
HCT-116 [4] = assay: Anticancer activity against human HCT116 cells deficient in p53 assessed as inhibition of cell proliferation; format: functional, cell-based
PANC-1 = assay: Cytotoxicity against human PANC1 cells harboring mutant TP53 gene incubated for 72 hrs by MTS assay; format: functional, cell-based; conditions: PANC-1, 72 h
U-251 = assay: Cytotoxicity against human U251 cells harboring mutant TP53 gene incubated for 72 hrs by MTS assay; format: functional, cell-based; conditions: U-251, 72 h
HepG2 = assay: Anticancer activity against human HepG2 cells assessed as inhibition of cell proliferation; format: functional, cell-based
MCF7 = assay: Anticancer activity against human MCF7 cells assessed as inhibition of cell proliferation; format: functional, cell-based
ASPC1 = assay: Cytotoxicity against human AsPC1 cells deficit of P53 gene incubated for 72 hrs by MTS assay; format: functional, cell-based; conditions: ASPC1, 72 h

`Oc1ccc(/C=C/c2ccc3cccc(O)c3n2)cc1` was tested, and the IC50 (NHDF) was > 25 µM, the IC50 (HCT-116 [1]) was 16.6 µM and the IC50 (HCT-116 [2]) was 13.5 µM.
Compound `CC(=O)Oc1ccccc1/C=C/c1ccc2cccc(O)c2n1` has an IC50 (HCT-116 [3]) of 7.3 µM, an IC50 (NHDF) of 6.92 µM and an IC50 (HCT-116 [1]) of 13.5 µM. The IC50 (HCT-116 [2]) was 7.32 µM.
In the case of `Oc1cccc2ccc(/C=C/c3ccccc3F)nc12`, the IC50 (HCT-116 [4]) is reported as 8.4 µM.
In the case of `COc1ccc(/C=C/c2nc(NCCCN(C)C)c3ccccc3n2)cc1`, the IC50 (NHDF) is reported as 12.3 µM, the IC50 (HCT-116 [1]) is reported as 26.3 µM and the IC50 (PANC-1; read-out: IC50) is reported as > 25 µM. It also gave an IC50 (U-251) of 18.8 µM and an IC50 (HCT-116 [2]) of 18.6 µM.
`CN(C)c1ccc(/C=C/c2cc(-c3nnc(N)s3)c3cc(Br)ccc3n2)cc1` gave an IC50 (HepG2) of 9 mg/L (≈ 19.9 µM).
In the case of `COc1cccc2c(Nc3ccc(/C(C)=N/O)cc3)cc(/C=C/c3ccccc3)nc12`, the IC50 (MCF7) is reported as > 4 mg/L.
`COc1cccc2c1C(=O)c1c(O)c3c(c(O)c1C2=O)C[C@@](O)(C(=O)CO)C[C@@H]3O[C@H]1C[C@H](N)[C@H](O)[C@H](C)O1` [DOXORUBICIN] gave an IC50 (NHDF) of 0.14 µM, an IC50 (HCT-116 [1]) of 0.38 µM and an IC50 (ASPC1) of 0.86 µM. For the same compound, the IC50 (PANC-1) was 0.73 µM, the IC50 (U-251) was 0.05 µM and the IC50 (HCT-116 [2]) was 0.34 µM.
In the case of `Oc1cccc2ccc(/C=C/c3c(F)cccc3Cl)nc12`, the IC50 (HCT-116 [1]) is reported as > 25 µM and the IC50 (HCT-116 [2]) is reported as > 25 µM.
With `O=c1[nH]cc(F)c(=O)[nH]1` [FLUOROURACIL] the IC50 (NHDF) was > 25 µM, the IC50 (HCT-116 [1]) was 4.69 µM and the IC50 (HCT-116 [2]) was 4.42 µM.
